Reference: ChEMBL document CHEMBL5104091, “Pyridazine as a privileged structure: An updated review on anticancer activity of pyridazine containing bioactive molecules” (Eur J Med Chem, 2021)
pIC50: −log10 of the molar value. In brackets after ≈: the same amount, converted by molar mass.

Legend:
[1] = target: T1, Vascular endothelial growth factor receptor 2 (Homo sapiens, UniProt P35968); assay: Inhibition of VEGFR2 (unknown origin) using poly (Glu,Tyr) 4:1 as substrate measured after 5 mins in presence of ATP by ELISA method
MCF7 [2] = assay: Cytotoxicity against human MCF7 cells assessed as cell growth inhibition measured after 48 hrs by MTT assay; assay type: functional, cell-based; conditions: MCF7, 48 h
P815 = assay: Cytotoxicity against mouse P815 cells assessed as cell growth inhibition measured after 48 hrs by MTT assay; assay type: functional, cell-based; conditions: P815, 48 h
[3] = target: T2, Poly [ADP-ribose] polymerase 1 (Homo sapiens, UniProt P09874); assay: Inhibition of PARP1 (unknown origin) by colorimetric assay
[4] = In vivo inhibition of VEGFR2 in Swiss albino mouse implanted with mouse Ehrlich cells incubated for 24 hrs by immunohistochemical staining based analysis relative to control; assay type: functional
[5] = target: Vascular endothelial growth factor receptor 3 (Homo sapiens) (UniProt P35916); assay: Inhibition of VEGFR3 (unknown origin) at 10 uM by ELISA relative to control
SK-MEL = assay: Cytotoxicity against human SK-MEL cells assessed as cell growth inhibition; assay type: functional, cell-based
KB = assay: Cytotoxicity against human KB cells assessed as cell growth inhibition; assay type: functional, cell-based
HepG2 [6] = assay: Antiproliferative activity against human HepG2 cells assessed as cell growth inhibition incubated for 24 hrs by MTT assay; assay type: functional, cell-based; conditions: HepG2, 24 h
MCF7 [7] = assay: Antiproliferative activity against human MCF7 cells assessed as cell growth inhibition incubated for 24 hrs by MTT assay; assay type: functional, cell-based; conditions: MCF7, 24 h
[8] = target: T1, Vascular endothelial growth factor receptor 2; assay: Binding affinity to VEGFR2 (unknown origin) at 10 uM using ULight-4E-BP1 peptide as substrate incubated for 1 hr in presence of ATP by fluorescence based analysis relative to control
MDA-MB-231 = assay: Antiproliferative activity against human MDA-MB-231 cells assessed as cell growth inhibition measured after 48 hrs by WST-1 assay; assay type: functional, cell-based; conditions: MDA-MB-231, 48 h
[9] = target: Hepatocyte growth factor receptor (Homo sapiens, UniProt P08581); assay: Inhibition of human recombinant c-MET in presence of ATP by HTRF assay
A549 [10] = assay: Cytotoxicity against human A549 cells assessed as cell growth inhibition measured after 45 hrs by MTT assay; assay type: functional, cell-based; conditions: A549, 45 h
HepG2 [11] = assay: Cytotoxicity against human HepG2 cells assessed as cell growth inhibition measured after 45 hrs by MTT assay; assay type: functional, cell-based; conditions: HepG2, 45 h
SiHa = assay: Cytotoxicity against human SiHa cells assessed as cell growth inhibition measured after 45 hrs by MTT assay; assay type: functional, cell-based
A498 = assay: Cytotoxicity against human A498 cells assessed as cell growth inhibition measured after 45 hrs by MTT assay; assay type: functional, cell-based; conditions: A498, 45 h
Ca-Ski = assay: Cytotoxicity against human Ca-Ski cells assessed as cell growth inhibition measured after 45 hrs by MTT assay; assay type: functional, cell-based
[12] = target: T2, Poly [ADP-ribose] polymerase 1; assay: Displacement of [125I]KX1 from PARP1 in human OVCAR-8 cells incubated for 1 hr by wizard gamma counter analysis; assay type: cell-based
PC-3 = assay: Cytotoxicity against human PC-3 cells assessed as cell growth inhibition by MTT assay; assay type: functional, cell-based
HCT-116 [13] = assay: Cytotoxicity against human HCT-116 cells assessed as cell growth inhibition by colorimetric method; assay type: functional, cell-based
MDA-MB-468 = assay: Cytotoxicity against human MDA-MB-468 cells assessed as cell growth reduction measured after 48 hrs by MTT assay; assay type: functional, cell-based; conditions: MDA-MB-468, 48 h
ECa-109 cell line = assay: Antiproliferative activity against human EC109 cells assessed as inhibition of cell growth; assay type: functional, cell-based
HepG2 [14] = assay: Cytotoxicity against human HepG2 cells assessed as cell growth inhibition measured after 72 hrs by MTT assay; assay type: functional, cell-based; conditions: HepG2, 72 h
MCF7 [15] = assay: Cytotoxicity against human MCF7 cells assessed as cell growth inhibition measured after 72 hrs by MTT assay; assay type: functional, cell-based; conditions: MCF7, 72 h
A549 [16] = assay: Cytotoxicity against human A549 cells assessed as cell growth inhibition measured after 72 hrs by MTT assay; assay type: functional, cell-based; conditions: A549, 72 h
HepG2 [17] = assay: Cytotoxicity against human HepG2 cells assessed as cell growth inhibition after 48 hrs by SRB assay; assay type: functional, cell-based; conditions: HepG2, 48 h
MCF7 [18] = assay: Antiproliferative activity against human MCF7 cells assessed as cell growth inhibition; assay type: functional, cell-based
MCF-12A = assay: Antiproliferative activity against human MCF-12A cells assessed as cell growth inhibition; assay type: functional, cell-based
[19] = Inhibition of tyrosine kinase (unknown origin); parameters: species or system Homo sapiens
HepG2 [20] = assay: Cytotoxicity against human HepG2 cells assessed as cell growth inhibition by colorimetric method; assay type: functional, cell-based
HCT-116 [21] = assay: Cytotoxicity against human HCT-116 cells assessed as cell growth inhibition measured after 72 hrs by MTT assay; assay type: functional, cell-based; conditions: HCT-116, 72 h
A549 [22] = assay: Antiproliferative activity against human A549 cells assessed as cell growth inhibition measured after 48 hrs by MTT assay; assay type: functional, cell-based; conditions: A549, 48 h

T2 sequence (P09874 whole entry): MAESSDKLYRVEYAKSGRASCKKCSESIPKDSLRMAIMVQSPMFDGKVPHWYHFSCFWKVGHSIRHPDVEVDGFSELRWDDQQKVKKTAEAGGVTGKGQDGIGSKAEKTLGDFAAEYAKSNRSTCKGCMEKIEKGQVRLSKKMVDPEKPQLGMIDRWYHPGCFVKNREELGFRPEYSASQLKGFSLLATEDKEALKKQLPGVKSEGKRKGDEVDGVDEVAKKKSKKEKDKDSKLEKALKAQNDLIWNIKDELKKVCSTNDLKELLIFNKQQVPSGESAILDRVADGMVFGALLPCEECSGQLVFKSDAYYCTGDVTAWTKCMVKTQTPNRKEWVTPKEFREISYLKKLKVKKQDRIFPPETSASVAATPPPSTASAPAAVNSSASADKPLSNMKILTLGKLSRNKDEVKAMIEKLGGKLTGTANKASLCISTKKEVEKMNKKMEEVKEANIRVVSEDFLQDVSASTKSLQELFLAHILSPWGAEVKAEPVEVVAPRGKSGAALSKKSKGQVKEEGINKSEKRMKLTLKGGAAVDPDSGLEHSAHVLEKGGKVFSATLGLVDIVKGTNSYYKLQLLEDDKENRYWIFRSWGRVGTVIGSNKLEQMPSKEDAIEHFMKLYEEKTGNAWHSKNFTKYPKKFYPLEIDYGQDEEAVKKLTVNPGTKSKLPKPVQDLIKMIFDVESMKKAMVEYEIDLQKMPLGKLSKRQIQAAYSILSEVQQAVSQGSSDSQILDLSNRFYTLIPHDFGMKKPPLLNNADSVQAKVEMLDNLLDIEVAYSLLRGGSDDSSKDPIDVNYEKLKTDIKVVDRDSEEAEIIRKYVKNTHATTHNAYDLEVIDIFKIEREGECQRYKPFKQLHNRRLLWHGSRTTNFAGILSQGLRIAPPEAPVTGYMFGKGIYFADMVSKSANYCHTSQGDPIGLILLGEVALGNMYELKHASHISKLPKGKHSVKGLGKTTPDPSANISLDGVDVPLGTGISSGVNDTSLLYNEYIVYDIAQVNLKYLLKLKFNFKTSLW
T1 sequence (P35968 whole entry): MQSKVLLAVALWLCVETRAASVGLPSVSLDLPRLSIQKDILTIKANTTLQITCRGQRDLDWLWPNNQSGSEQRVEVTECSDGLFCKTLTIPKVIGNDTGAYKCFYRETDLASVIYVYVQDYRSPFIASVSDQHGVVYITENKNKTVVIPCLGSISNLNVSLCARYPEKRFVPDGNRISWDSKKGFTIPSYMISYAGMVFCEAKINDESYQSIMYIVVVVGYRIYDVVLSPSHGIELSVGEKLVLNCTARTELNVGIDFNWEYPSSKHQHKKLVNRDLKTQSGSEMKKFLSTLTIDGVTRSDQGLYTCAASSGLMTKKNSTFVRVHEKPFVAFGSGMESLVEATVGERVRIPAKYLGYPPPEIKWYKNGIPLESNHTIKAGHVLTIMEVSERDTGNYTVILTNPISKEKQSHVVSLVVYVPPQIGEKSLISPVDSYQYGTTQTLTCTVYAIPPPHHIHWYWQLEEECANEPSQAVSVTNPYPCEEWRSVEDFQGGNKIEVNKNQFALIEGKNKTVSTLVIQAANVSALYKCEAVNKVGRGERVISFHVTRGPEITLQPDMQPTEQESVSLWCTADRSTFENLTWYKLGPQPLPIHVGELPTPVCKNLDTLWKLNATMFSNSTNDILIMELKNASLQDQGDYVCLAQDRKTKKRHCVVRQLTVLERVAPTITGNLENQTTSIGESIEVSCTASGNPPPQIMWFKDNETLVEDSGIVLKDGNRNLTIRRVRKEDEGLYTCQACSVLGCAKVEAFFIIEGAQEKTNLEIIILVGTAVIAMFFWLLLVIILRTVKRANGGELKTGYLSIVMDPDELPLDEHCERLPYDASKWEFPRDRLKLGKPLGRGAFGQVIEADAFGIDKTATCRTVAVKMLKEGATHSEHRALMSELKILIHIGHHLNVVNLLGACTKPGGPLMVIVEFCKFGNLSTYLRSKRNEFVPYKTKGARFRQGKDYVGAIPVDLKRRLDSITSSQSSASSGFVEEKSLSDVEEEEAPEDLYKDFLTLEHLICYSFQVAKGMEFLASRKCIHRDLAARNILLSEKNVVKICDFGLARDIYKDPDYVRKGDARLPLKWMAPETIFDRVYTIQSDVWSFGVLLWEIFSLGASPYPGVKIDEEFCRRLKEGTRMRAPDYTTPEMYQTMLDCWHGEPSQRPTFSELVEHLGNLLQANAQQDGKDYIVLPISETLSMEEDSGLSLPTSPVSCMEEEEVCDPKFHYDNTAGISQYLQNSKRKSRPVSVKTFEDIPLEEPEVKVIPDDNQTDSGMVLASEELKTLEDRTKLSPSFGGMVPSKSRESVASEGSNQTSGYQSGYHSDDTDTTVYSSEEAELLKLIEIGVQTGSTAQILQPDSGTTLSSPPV
Chain of Hepatocyte growth factor receptor (P08581 whole entry): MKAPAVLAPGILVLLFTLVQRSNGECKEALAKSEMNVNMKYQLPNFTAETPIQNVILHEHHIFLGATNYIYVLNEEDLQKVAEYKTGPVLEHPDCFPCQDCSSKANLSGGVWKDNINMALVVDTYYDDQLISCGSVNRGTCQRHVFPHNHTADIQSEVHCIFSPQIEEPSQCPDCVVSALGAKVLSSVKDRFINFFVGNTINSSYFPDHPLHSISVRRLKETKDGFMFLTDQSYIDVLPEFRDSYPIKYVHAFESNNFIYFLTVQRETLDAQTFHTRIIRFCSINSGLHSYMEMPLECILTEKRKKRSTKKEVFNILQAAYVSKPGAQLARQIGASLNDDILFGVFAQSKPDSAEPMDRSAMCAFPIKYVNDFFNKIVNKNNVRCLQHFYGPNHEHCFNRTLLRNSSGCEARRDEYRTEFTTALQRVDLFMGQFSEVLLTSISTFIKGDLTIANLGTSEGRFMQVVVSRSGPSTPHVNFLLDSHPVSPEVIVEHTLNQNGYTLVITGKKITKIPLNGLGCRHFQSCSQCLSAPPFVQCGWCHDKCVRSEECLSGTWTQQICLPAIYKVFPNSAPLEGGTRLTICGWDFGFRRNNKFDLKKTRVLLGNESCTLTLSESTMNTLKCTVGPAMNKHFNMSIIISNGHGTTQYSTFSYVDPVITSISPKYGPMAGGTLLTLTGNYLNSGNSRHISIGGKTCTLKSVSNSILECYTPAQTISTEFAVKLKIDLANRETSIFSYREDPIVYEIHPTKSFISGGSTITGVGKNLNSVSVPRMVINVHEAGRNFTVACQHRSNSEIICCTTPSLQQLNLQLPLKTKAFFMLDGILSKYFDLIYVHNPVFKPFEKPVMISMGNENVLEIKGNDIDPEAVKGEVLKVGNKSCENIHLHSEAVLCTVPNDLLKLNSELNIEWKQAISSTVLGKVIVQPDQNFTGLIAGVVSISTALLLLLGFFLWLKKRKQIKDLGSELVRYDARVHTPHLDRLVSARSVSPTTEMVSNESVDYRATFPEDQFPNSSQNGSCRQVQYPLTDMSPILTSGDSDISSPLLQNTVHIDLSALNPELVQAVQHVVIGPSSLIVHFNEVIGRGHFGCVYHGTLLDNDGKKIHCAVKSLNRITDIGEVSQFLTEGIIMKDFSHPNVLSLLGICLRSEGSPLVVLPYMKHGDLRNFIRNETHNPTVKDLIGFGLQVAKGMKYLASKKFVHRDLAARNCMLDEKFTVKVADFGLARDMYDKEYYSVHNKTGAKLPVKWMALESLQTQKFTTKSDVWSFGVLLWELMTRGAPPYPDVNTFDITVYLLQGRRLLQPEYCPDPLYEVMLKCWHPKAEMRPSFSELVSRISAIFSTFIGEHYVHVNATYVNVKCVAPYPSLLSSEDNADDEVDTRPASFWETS
Chain of Vascular endothelial growth factor receptor 3 (Homo sapiens) (P35916 whole entry): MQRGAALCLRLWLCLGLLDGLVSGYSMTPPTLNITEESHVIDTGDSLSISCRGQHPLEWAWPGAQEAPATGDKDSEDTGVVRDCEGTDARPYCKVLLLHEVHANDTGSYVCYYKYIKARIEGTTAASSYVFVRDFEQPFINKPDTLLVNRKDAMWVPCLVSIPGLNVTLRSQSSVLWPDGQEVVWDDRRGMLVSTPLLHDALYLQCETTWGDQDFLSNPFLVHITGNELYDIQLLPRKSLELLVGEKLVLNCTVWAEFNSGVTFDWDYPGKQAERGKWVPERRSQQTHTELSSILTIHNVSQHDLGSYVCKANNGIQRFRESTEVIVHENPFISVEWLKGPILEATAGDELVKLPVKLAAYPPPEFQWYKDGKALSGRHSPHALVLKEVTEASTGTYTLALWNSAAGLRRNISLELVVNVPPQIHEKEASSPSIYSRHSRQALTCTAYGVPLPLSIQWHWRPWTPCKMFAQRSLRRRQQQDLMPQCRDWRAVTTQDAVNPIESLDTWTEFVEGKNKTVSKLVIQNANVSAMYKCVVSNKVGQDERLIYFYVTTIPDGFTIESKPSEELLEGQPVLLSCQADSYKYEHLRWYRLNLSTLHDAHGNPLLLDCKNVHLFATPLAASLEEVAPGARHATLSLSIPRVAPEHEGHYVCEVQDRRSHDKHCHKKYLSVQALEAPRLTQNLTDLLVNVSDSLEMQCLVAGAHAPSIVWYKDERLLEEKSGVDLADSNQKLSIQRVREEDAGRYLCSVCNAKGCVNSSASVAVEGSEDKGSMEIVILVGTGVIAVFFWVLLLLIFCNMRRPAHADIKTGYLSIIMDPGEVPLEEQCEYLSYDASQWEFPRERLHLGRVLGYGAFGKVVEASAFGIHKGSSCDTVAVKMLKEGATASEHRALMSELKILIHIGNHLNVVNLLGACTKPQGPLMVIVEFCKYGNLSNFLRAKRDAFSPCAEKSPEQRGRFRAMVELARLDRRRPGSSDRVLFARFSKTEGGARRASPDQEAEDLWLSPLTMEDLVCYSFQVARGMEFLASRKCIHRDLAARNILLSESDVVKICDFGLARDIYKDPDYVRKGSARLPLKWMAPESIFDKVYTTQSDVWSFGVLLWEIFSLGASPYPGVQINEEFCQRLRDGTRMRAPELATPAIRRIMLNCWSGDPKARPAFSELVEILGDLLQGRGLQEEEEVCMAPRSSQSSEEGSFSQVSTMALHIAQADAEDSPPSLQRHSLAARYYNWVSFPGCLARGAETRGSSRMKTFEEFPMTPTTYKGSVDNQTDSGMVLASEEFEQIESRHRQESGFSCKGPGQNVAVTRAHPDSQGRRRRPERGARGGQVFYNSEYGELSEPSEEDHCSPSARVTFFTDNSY

S=C(NNc1nn2cnnc2c2ccccc12)Nc1ccccc1
pIC50 [1]: 6.04

CCCOc1ccc2oc(Cc3cc(=O)[nH]nc3C)cc2c1
pIC50 (MCF7 [2]): 4.84 | pIC50 (P815): 4.46

O=C(c1ccc(Cc2n[nH]c(=O)c3cccnc23)cc1)N1CCCC1
pIC50 [3]: 7.43

Cc1ccc(NC(=O)c2ccc(CN3CCN(C)CC3)cc2)cc1Nc1nccc(-c2cccnc2)n1 [IMATINIB]
inhibition (INH) [4]: 30% | inhibition [5]: 89.6%

O=c1c(CNc2ccccc2)cc(OS(=O)(=O)C(F)(F)F)nn1Cc1ccccc1
pIC50 (SK-MEL): 5.48 | pIC50 (KB): 5.55

Cc1cc(-c2ccc(OCC(=O)NNc3nnc(COc4ccc(-c5ccc(Cl)c(C)c5)nn4)o3)nn2)ccc1Cl
pIC50 (HepG2 [6]): 5.06 | pIC50 (MCF7 [7]): 5.03

O=C(Nc1ccc(Cl)c(Cl)c1)Nc1nnc2ccc(Cl)nn12
Activity [8]: 3%

O=C1Nc2ccc(F)cc2/C1=N/Nc1nnc(-c2ccccc2)c2ccccc12
pIC50 (MDA-MB-231): 4.92

Cn1cc(-c2ccc(=O)n(CC3CN(c4ncc(OCC5CCNCC5)cn4)CCO3)n2)cn1 (stereo unspecified)
pIC50 [9]: 7.72

O=C(NNc1nn2cnnc2c2ccccc12)Nc1ccccc1
pIC50 [1]: 6.51

O=C1Nc2ccc(F)cc2/C1=N/Nc1nnc(-c2ccc(Cl)cc2)c2ccccc12
pIC50 (MDA-MB-231): 4.92

CC(C)c1ccc(OCC(=O)NNc2ccc(Cl)nn2)c(C(C)C)c1
pIC50 (A549 [10]): 5.18 | pIC50 (HepG2 [11]): 5.16 | pIC50 (SiHa): 5.11 | pIC50 (A498): 5.17 | pIC50 (Ca-Ski): 5.12

COC1CN(C(=O)c2cc(Cc3n[nH]c(=O)c4ccccc34)ccc2F)C1
pIC50 [12]: 8.09

COC1CCCN(C(=O)c2cc(Cc3n[nH]c(=O)c4ccccc34)ccc2F)CC1 (stereo unspecified)
pIC50 [12]: 8.33

Sc1nnc(-c2ccc(Oc3ccccc3)cc2)c2ccccc12
IC50 (PC-3): 9.22 µg/mL (≈ 27.9 µM)

Cc1ccc(-c2cc(-c3c(-c4ccccc4)[nH]c4ccccc34)c(Nc3ccc(/N=N/c4c(C)nc(N)nc4C)cc3)nn2)cc1C
IC50 (HCT-116 [13]): 2.1 µg/mL (≈ 3.41 µM)

Cc1n[nH]c(=O)cc1Cc1cc2cc(Cl)ccc2o1
pIC50 (MDA-MB-468): 5.05

O=C1Nc2ccc(Br)cc2/C1=N/Nc1nnc(-c2ccc(Cl)cc2)c2ccccc12
pIC50 (MDA-MB-231): 4.92

Cc1n[nH]c(=O)cc1Cc1cc2ccccc2o1
pIC50 (MCF7 [2]): 4.84 | pIC50 (P815): 4.46

O=c1[nH]cc(F)c(=O)[nH]1 [FLUOROURACIL]
pIC50 (MDA-MB-231): 4.53 | pIC50 (ECa-109 cell line): 4.84

COc1cc2c(Oc3ccc(NC(=O)c4nn(-c5ccccc5)ccc4=O)cc3F)ccnc2cc1OCCCN1CCN(C)CC1
pIC50 (HepG2 [14]): 6.31 | pIC50 (MCF7 [15]): 8.22 | pIC50 (A549 [16]): 8.52

COc1ccc2oc(Cc3cc(=O)[nH]nc3C)cc2c1
pIC50 (MCF7 [2]): 4.84 | pIC50 (P815): 4.46

O=C(Cn1nc(Cc2ccccc2)c2ccccc2c1=O)NNC(=S)Nc1ccccc1
IC50 (HepG2 [17]): 7.09 µg/mL (≈ 16 µM)

Cc1cccc(NC(=S)NNC(=O)c2nnc3ccc(C)cc3c2N)c1
pIC50 (MCF7 [18]): 6.74 | pIC50 (MCF-12A): 4.31 | pIC50 [19]: 6.26

COC1CCN(C(=O)c2cc(Cc3n[nH]c(=O)c4ccccc34)ccc2F)C1 (stereo unspecified)
pIC50 [12]: 8.38

CCOC(=O)/C(C#N)=N/Nc1ccc(Nc2nnc(-c3ccc(C)c(C)c3)cc2-c2c(-c3ccccc3)[nH]c3ccccc23)cc1
IC50 (HepG2 [20]): 3.1 µg/mL (≈ 5.12 µM)

NNc1nnc(-c2ccc(Oc3ccccc3)cc2)c2ccccc12
IC50 (PC-3): 12.2 µg/mL (≈ 37.2 µM)

O=C(NNc1nn2cnnc2c2ccccc12)NC1CCCCC1
pIC50 (HCT-116 [21]): 5.22 | pIC50 (MCF7 [15]): 5.06 | pIC50 [1]: 6.96

CNC(=O)c1cc(Oc2ccc(NC(=O)Nc3ccc(Cl)c(C(F)(F)F)c3)cc2)ccn1 [SORAFENIB]
pIC50 (A549 [22]): 5.90
